Experimental data taken from ChEMBL document CHEMBL1201862, “PubChem BioAssay data set” (2004).
Calls of active or inactive are those of the source.

Assays:
[1] = molecular target: NAD-dependent protein deacylase sirtuin-5, mitochondrial (Homo sapiens, UniProt Q9NXA8); test: SIRT5 desuccinylase inhibitors, dose response, biochemical, fluorescence imaging, cherry-pick, set 5 (AID 720591);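 further: desuccinylation of succinyl peptide AMC substrate read as fluorescence after trypsin release; potency of inhibitors that lower fluorescence and may act on trypsin instead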
Sequence of NAD-dependent protein deacylase sirtuin-5, mitochondrial (Q9NXA8 whole entry): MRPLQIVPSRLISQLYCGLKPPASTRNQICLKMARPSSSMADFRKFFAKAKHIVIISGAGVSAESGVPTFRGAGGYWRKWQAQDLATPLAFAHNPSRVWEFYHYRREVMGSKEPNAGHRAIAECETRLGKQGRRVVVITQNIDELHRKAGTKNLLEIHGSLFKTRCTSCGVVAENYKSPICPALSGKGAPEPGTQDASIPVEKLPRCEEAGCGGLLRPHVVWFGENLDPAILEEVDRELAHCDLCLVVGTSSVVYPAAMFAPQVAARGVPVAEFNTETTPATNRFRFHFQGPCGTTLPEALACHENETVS

[2] = HEK293 cell cytotoxicity, dose response, cytotoxicity control, plate reader, cherry-picked samples (AID 743446); type: functional, cell-based
[3] = LGR2 antagonists, dose response, cell-based, HEK293, CRE-luciferase reporter, cherry pick, set 2 (AID 743343); type: functional;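 further: transfected cells were stimulated with diluted bursicon conditioned medium after compound addition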
[4] = off-target signal loss in HeLa-CEM21 co-culture – HeLa F-luc CTL cells, cherry-picked, counter-screen for HIV-1 Env fusion inhibitor project, dose response (AID 652040); type: functional, cell-based;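 further: potency for signal decrease marking cytotoxic or nonspecific inhibition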
[5] = A549 cell cytotoxicity, dose response, cytotoxicity control, plate reader, cherry-pick, antagonist series (AID 743412); type: functional, cell-based
[6] = inhibitors of clade B AD8 Env fusion, dose response, cell-based, cherry-pick (AID 652062); type: functional;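 further: luciferase signal from cell-cell fusion driven by HIV-1 clade B AD8 Env; potency is for inhibitors of fusion seen as a drop in luminescence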
[7] = inhibitors of HIV Env-driven cell fusion, dose response, cherry-pick (AID 652057); type: functional, cell-based
[8] = CEM21 lymphoblast cell cytotoxicity, dose response, cytotoxicity control for viral fusion inhibitor project, CellTiter-Glo luminescence, cherry-picked (AID 652042); type: functional, cell-based;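 further: potency for signal decrease meaning cytotoxicity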
[9] = MC4R antagonists, dose response, counter-screen for LGR2 antagonist project, cell-based, plate reader, cherry pick (AID 743444); type: functional;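 further: transfected HEK 293 cells stimulated with alpha-MSH peptide; potency of inhibitors of the alpha-MSH evoked signal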
[10] = HepG2 cell cytotoxicity, dose response, cytotoxicity control, plate reader, cherry-pick, antagonist series (AID 743416); type: functional, cell-based
[11] = ZM109 Env clade C HIV-1 fusion inhibitors, dose response, HeLa effector, CEM target cells, luciferase, cherry-pick (AID 652058); type: functional, cell-based
[12] = cytotoxicity toward NIH3T3 fibroblasts, dose response, counter-screen, cell-based, ATP luminescence, mouse fibroblasts (AID 2010); type: functional;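 further: cells exposed to compound for about 90 hours before reading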
[13] = inhibitors of intracellular T. cruzi replication, confirmation, NIH3T3 host cells, beta-gal luminescence (AID 2044); type: functional, cell-based;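 further: intracellular parasites grown in NIH/3T3 mouse fibroblasts as host cells; luminescent beta-galactosidase reporter signal from transgenic T. cruzi replicating inside host cells; inhibitors lower the luminescence signal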
Procathepsin L = Procathepsin L (Homo sapiens, UniProt P07711); test: cathepsin L inhibitors, dose response, counter-screen for M1/M17 aminopeptidase inhibitor project, biochemical, QFRET, 1536-well (AID 2214)
Sequence of Procathepsin L (P07711 whole entry): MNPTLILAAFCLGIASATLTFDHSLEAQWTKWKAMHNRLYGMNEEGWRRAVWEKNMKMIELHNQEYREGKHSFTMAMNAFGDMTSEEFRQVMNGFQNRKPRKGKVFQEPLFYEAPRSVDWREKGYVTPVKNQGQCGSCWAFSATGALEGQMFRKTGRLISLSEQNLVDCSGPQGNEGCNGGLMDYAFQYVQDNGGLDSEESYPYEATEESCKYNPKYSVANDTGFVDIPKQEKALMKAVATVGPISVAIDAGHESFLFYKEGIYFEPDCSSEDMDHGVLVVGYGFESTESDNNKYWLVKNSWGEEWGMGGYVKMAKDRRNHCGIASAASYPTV

Leucine aminopeptidase = molecular target: T1, Leucine aminopeptidase (Plasmodium falciparum 3D7, UniProt Q8IL11); test: P. falciparum M17LAP inhibitors, primary screen, biochemical, fluorogenic H-Leu-NHMec substrate, 1536-well (AID 1619); type: functional
T1 sequence (Q8IL11 whole entry): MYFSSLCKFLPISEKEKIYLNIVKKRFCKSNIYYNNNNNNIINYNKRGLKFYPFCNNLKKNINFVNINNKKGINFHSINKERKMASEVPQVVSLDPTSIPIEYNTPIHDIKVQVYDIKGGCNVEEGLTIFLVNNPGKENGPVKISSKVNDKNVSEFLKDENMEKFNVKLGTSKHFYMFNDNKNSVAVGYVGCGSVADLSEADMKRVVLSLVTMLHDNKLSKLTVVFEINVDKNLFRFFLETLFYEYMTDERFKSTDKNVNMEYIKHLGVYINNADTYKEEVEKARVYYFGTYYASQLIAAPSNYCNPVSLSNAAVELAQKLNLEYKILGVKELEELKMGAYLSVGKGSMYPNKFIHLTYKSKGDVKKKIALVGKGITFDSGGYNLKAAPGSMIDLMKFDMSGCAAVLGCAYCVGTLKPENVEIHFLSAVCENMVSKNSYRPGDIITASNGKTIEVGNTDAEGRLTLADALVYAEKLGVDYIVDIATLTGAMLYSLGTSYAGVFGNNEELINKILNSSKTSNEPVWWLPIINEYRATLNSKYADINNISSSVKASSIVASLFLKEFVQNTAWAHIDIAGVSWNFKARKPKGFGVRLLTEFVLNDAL

Aspartyl aminopeptidase = molecular target: T2, Aspartyl aminopeptidase (Plasmodium falciparum 3D7, UniProt Q8I2J3); test: Counterscreen for inhibitors of M1 and M17 aminopeptidases: QFRET-based biochemical high throughput dose response assay for inhibitors of the Plasmodium falciparum M18 Aspartyl Aminopeptidase (PFM18AAP). [Related PubChem assays: 1619 (Screening assay (M17LAP inhibitors).), 1445 (Screening assay (M1AAP inhibitors).)]
T2 sequence (Q8I2J3 whole entry): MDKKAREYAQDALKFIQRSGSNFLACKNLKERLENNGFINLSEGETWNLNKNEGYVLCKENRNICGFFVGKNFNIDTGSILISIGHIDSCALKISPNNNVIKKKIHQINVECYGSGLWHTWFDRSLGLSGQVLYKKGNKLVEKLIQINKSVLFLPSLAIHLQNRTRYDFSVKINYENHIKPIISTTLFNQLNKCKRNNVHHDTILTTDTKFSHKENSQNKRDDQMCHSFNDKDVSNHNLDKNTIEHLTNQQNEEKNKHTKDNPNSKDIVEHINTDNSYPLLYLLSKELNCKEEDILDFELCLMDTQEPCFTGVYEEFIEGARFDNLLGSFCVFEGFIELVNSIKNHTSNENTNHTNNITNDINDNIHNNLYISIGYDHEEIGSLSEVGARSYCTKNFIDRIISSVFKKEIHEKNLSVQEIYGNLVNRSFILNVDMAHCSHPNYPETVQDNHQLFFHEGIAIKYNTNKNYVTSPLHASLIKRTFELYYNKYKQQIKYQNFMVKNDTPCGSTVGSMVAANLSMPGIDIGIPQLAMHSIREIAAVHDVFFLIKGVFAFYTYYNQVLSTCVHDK

[14] = ADAM10 protease inhibitors, dose response, selectivity assay for ADAM17 exosite inhibitor project, biochemical, FRET peptide substrate, recombinant human ADAM10 (AID 743259);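 further: ADAM10 enzyme cleaving a FRET peptide substrate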
[15] = molecular target: Disintegrin and metalloproteinase domain-containing protein 17 (Homo sapiens, UniProt P78536); test: exosite inhibitors of ADAM17, dose response, biochemical (AID 743260)
Sequence of Disintegrin and metalloproteinase domain-containing protein 17 (P78536 whole entry, the tested form may be a part): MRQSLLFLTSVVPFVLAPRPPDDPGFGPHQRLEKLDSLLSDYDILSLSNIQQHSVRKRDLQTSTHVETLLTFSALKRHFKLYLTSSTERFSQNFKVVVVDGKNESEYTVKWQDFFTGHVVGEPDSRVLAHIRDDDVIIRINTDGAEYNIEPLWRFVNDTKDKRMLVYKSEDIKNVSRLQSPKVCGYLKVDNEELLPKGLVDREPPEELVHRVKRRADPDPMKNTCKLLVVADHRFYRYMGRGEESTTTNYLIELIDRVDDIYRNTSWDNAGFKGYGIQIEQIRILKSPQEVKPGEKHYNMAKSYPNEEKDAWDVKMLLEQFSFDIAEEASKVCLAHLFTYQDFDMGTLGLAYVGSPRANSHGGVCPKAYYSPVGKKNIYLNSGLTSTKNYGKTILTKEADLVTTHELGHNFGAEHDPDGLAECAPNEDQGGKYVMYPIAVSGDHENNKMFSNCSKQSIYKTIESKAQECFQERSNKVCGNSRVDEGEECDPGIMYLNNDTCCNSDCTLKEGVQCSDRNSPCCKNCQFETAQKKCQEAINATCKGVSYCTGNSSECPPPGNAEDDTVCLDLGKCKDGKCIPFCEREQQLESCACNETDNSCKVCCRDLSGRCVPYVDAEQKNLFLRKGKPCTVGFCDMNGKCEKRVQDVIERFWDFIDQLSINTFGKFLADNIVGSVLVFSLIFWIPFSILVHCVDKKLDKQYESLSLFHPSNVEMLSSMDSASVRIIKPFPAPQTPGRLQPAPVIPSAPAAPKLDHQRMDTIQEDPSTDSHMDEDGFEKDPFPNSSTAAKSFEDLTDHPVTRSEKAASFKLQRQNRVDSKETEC

Aminopeptidase N = molecular target: T3, Aminopeptidase N (Plasmodium falciparum FcB1/Columbia, UniProt O96935); test: P. falciparum M1AAP inhibitors, biochemical, fluorogenic H-Leu-NHMec substrate, 1536-well (AID 1445); parameters: species or system Plasmodium falciparum 3D7, 3D7
T3 sequence (O96935 whole entry): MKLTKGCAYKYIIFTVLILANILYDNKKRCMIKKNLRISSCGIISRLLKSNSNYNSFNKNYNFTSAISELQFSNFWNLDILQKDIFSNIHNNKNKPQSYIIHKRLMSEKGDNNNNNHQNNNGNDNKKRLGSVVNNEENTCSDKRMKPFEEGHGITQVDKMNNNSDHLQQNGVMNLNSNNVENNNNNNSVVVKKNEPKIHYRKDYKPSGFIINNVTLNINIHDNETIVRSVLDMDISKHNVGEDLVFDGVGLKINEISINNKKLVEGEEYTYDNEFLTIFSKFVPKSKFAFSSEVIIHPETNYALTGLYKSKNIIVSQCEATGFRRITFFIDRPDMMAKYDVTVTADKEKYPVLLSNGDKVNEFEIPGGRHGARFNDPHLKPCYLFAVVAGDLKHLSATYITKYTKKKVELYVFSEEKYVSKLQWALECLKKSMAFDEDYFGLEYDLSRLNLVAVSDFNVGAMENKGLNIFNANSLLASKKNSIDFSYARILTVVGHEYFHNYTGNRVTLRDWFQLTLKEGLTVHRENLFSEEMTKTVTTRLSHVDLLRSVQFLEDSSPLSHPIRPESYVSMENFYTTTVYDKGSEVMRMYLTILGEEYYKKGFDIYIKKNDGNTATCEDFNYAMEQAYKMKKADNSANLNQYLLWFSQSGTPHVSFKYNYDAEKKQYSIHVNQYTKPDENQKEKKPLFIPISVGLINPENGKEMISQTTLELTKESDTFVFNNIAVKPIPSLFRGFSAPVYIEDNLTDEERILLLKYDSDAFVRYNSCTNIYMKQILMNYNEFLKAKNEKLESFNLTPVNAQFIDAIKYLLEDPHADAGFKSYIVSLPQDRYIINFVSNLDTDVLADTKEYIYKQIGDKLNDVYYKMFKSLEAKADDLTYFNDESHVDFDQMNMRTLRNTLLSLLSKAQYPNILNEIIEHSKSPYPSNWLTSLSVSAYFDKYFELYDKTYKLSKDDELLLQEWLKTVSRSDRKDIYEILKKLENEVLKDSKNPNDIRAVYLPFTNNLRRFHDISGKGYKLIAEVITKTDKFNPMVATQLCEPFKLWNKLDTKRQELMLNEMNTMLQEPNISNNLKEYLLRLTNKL

[16] = reduction of Shn3 3'UTR firefly luciferase signal, dose response, Schnurri-3 inhibitor project, cell-based, Clone20 osteoblasts, cherry-pick, set 2 (AID 720490); type: functional;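 further: actives lower the luminescence signal as inhibitors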
[17] = Shn3 3'UTR reporter inhibitors, dose response, cell-based, Clone20 osteoblasts, firefly luciferase, cherry-picked (AID 624132); type: functional;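 further: firefly luciferase luminescence from reporter carrying the Shn3 3'UTR in osteoblasts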
[18] = molecular target: Metabotropic glutamate receptor 5 (Rattus norvegicus, UniProt P31424); test: Identification of a glycine sulfonamide based non-MPEP site positive allosteric potentiator (PAM) of mGlu5 (calcium_assay).; type: functional
Sequence of Metabotropic glutamate receptor 5 (P31424 whole entry): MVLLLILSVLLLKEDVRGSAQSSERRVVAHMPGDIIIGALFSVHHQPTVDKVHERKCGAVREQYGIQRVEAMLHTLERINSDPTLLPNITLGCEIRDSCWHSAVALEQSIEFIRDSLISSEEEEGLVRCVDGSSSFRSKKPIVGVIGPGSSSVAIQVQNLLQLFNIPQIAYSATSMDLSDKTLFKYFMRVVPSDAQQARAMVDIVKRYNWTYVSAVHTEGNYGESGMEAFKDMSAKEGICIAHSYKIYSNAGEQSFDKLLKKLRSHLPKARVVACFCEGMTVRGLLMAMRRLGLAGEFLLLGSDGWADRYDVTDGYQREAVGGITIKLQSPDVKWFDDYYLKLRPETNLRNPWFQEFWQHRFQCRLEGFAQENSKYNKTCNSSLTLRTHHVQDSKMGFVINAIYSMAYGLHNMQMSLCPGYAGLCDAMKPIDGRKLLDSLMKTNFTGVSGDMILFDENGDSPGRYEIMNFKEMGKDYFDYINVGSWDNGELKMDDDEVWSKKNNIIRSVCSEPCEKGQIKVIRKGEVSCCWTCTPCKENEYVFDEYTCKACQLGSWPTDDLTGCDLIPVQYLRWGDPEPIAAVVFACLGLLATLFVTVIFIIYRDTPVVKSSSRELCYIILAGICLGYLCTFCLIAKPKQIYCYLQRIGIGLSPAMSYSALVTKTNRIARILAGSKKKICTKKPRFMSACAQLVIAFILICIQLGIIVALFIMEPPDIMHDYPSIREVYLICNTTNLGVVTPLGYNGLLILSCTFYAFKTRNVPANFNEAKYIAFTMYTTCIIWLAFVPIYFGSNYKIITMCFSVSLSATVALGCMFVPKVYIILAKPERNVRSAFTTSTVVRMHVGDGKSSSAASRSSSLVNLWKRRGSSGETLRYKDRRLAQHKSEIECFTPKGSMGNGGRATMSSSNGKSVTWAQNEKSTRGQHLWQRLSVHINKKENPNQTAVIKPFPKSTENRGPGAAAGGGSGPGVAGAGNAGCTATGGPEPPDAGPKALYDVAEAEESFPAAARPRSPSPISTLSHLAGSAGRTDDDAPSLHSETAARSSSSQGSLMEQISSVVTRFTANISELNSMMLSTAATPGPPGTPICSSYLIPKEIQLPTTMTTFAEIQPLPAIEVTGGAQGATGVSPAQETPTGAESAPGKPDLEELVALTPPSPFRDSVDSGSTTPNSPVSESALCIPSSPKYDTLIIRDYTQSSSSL

[19] = NIH:OVCAR-3 ovarian cancer cell cytotoxicity, dose response, PAX8 inhibitor project, plate reader, dry powder samples (AID 743044); type: functional, cell-based
Paired box protein Pax-8 = Paired box protein Pax-8 (Homo sapiens, UniProt Q06710); test: inhibitors of PAX8-driven TPO luciferase reporter, dose response, RMG-I cells, cherry-pick (AID 687027); type: functional, cell-based;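 further: luciferase reporter driven by Pax8 target thyroperoxidase promoter measured by SteadyGlo luminescence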
Sequence of Paired box protein Pax-8 (Q06710 whole entry): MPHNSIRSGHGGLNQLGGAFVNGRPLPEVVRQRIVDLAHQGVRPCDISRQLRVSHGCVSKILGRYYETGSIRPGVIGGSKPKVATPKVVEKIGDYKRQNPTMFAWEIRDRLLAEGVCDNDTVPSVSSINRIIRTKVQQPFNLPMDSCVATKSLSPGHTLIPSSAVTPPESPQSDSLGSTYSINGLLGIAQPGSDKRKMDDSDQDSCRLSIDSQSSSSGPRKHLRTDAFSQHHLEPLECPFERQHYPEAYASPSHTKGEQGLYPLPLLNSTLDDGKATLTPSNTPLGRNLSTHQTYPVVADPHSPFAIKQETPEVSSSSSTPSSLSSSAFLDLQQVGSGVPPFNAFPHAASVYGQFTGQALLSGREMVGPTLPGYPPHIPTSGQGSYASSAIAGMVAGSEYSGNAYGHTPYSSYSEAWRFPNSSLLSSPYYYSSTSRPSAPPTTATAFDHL

[20] = cytotoxicity in OVCAR8 ovarian cancer cells, dose response, PAX8 project, cell-based, plate reader, dry powder samples (AID 743197); type: functional; conditions: OVCAR-8
[21] = Luminescence Cell-Based Dose Retest to Confirm Inhibitors of Cancer Stem Cells. [Related pubchem assays (depositor defined):AID2717, AID2721]; type: functional; conditions: Homo sapiens
[22] = HepG2 cell cytotoxicity, dose response, cytotoxicity control, cherry-picked samples (AID 1159577); type: functional, cell-based
[23] = P. falciparum Dd2 growth inhibitors, dose response, SYBR Green, cherry-picked samples (AID 1159567); type: functional, cell-based

CC(C(=O)NC(N)=O)N1C(=O)NC(c2ccccc2)(c2ccccc2)C1=O (centres undefined)
AC50 [1]: > 30 µM (inactive)

O=C(NC1CCCCC1)c1[nH]nc2c1CCCCC2
AC50 [2]: > 52 µM (inactive)
AC50 [3]: 3.2 µM (active)
AC50 [4]: 13.8 µM (active)
AC50 [5]: 37.1 µM (active)
AC50 [6]: 7.38 µM (active)
AC50 [7]: 6.09 µM (active)
AC50 [8]: 29.7 µM (active)
AC50 [9]: 2.24 µM (active)
AC50 [10]: > 52 µM (inactive)
AC50 [11]: 16.3 µM (active)

Cc1cc(=O)oc2c(C)c(OC(C)C(=O)NCCCN3CCCC3=O)ccc12 (centres undefined)
AC50 [1]: > 30 µM (inactive)

CC(C)Oc1ccc(CNCCC2(C(C)C)CCOC(C)(C)C2)cc1 (centres undefined)
EC50 [12]: > 60 µM (not active)
EC50 (cells): 0.154 µM (active)
EC50 [13]: < 0.1 µM (active)

C=CCn1c(SCC(=O)Nc2cccc3ccccc23)nc(=O)c(CC)c1O
IC50 (Procathepsin L): > 59.6 µM (not active)
IC50 (Leucine aminopeptidase): 4.06 µM (active)
IC50 (Aspartyl aminopeptidase): > 73.5 µM (not active)

O=C(O)CCC(=O)c1c[nH]c2ccccc12
IC50 [14]: > 69.5 µM (inactive)
IC50 [15]: 24.9 µM (inactive)

O=C(CCCn1cnc([N+](=O)[O-])n1)Nc1ccc(F)c(Cl)c1
EC50 [12]: > 60 µM (not active)
EC50 (cells): 0.098 µM (active)
EC50 [13]: < 0.1 µM (active)

O=C(Nn1c(C2CCC2)nc2ccccc2c1=O)c1cccs1
IC50 (Procathepsin L): > 59.6 µM (not active)
IC50 (Aminopeptidase N): 8.54 µM (active)
IC50 (Aspartyl aminopeptidase): > 73.5 µM (not active)

Cc1ccc(NC(=O)CSc2nc(O)c3c(n2)CCC3)cc1C
IC50 (Procathepsin L): > 59.6 µM (not active)
IC50 (Leucine aminopeptidase): 5.9 µM (active)
IC50 (Aspartyl aminopeptidase): > 73.5 µM (not active)

Cc1ccc(S(=O)(=O)CC(=O)N(CCCN(C)C)c2nc3ccc(C)cc3s2)cc1
EC50 [12]: > 30 µM (not active)
EC50 (cells): 0.06 µM (active)
EC50 [13]: < 0.1 µM (active)

Cc1ccccc1S(=O)(=O)N(C)C[C@@H]1OCc2ccccc2-c2c(n(C)c3ccccc23)C(=O)N([C@H](C)CO)C[C@@H]1C
AC50 [4]: 1.66 µM (active)
AC50 [6]: 3.16 µM (active)
AC50 [7]: 1.37 µM (active)
AC50 [8]: 31.6 µM (active)
AC50 [11]: 1.75 µM (active)

CCCCN1CC(COCc2ccccc2)Oc2cccc(Oc3ccc(C(C)C)cc3)c2S1(=O)=O (centres undefined)
AC50 [16]: 4.4 µM (active)
AC50 [17]: 5.03 µM (active)

CS(=O)(=O)N(CC(=O)Nc1ccccc1)c1ccccc1Cl
EC50 [18]: 0.049 µM

C[C@H]1CCCCO[C@H](CN(C)C(=O)C2CCCCC2)[C@@H](C)CN([C@@H](C)CO)C(=O)c2cc(NS(=O)(=O)c3ccc(Cl)cc3)ccc2O1
AC50 [19]: 33.9 µM (active)
AC50 (Paired box protein Pax-8): 11.5 µM (active)
AC50 [20]: > 70 µM (inactive)

CS(=O)(=O)N1c2ccccc2CCC1C(=O)Nc1nccs1 (centres undefined)
EC50 [18]: 4.43 µM

CC(C)NC(=O)CN(c1ccccc1Cl)S(C)(=O)=O
EC50 [18]: > 30 µM (inactive)

CCOC(=O)C1=C(C(=O)OCC)C2N(Cc3ccc(C#N)cc3)c3ccccc3[C@@]23C[C@@H](C(=O)OC)N(S(=O)(=O)c2ccc(OC)cc2)C3=N1 (some centres undefined)
IC50 [14]: 15.4 µM (inactive)
IC50 [15]: > 69.5 µM (inactive)

C/C(=N/Nc1ccc([N+](=O)[O-])cc1)c1ccc(C)cc1C
IC50 [14]: 20.5 µM (inactive)
AC50 [21]: 5.92 µM (active)
IC50 [15]: > 69.5 µM (inactive)

N#Cc1ccc(-c2ccc([C@@H]3[C@@H]4CN(Cc5ccccc5F)C[C@H]3N4)cc2)cc1
AC50 [22]: 9.39 µM (active)
AC50 [23]: 1.88 µM (active)

COc1cccc(CN2C[C@@H]3N[C@H](C2)[C@@H]3c2ccc(-c3ccncc3)cc2)c1
AC50 [22]: > 39 µM (inactive)
AC50 [23]: 4.63 µM (active)
